Test results from patent US8981111B2 (priority 2008, dated 2015).

Experiment: log P (HPLC/MS data of the preparation examples)
Conditions: HCOOH

Compound	log P(HCOOH)
pentyl{2-[({[(1-methyl-1H-imidazol-2-yl)(phenyl)methylene]amino}oxy)-methyl]pyrimidin-4-yl}carbamate [Example 61]	2.28
N-{2-[({[(1-methyl-1H-imidazol-2-yl)(phenyl)methylene]amino}-oxy)methyl]pyrimidin-4-yl}cyclopropanecarboxamide [Example 193]	1.50

Same assay, conditions: HCOOH (formic acid)

Compound	chromatographic logP
Cn1c(C(=NOCc2nccc(N(C(=O)C3CC3)C(=O)C3CC3)n2)c2ccccc2)cnc1C(=O)C1CC1 [Example 312, N-(cyclopropylcarbonyl)-N-(2-{[({[2-(cyclopropylcarbonyl)-1-methyl-1H-imidazol-5-yl](phenyl)methylene}amino)oxy]methyl}pyrimidin-4-yl)cyclopropanecarboxamide]	3.73
Cc1cnc(C)c(C(=O)c2ccccc2)n1 [(3,6-dimethylpyrazin-2-yl)(phenyl)methanone]	2.18
Cn1cncc1C(=NO)c1ccsc1 [N-hydroxy-1-(1-methyl-1H-imidazol-5-yl)-1-(3-thienyl)methanimine]	0.21
Cn1cncc1C(=NOCc1csc(N)n1)c1ccsc1 [Example 496, 4-[({[(1-methyl-1H-imidazol-5-yl)(3-thienyl)methylene]amino}oxy)methyl]-1,3-thiazol-2-amine]	0.45
Cn1cncc1C(=NO)c1ccccc1 [N-hydroxy-1-(1-methyl-1H-imidazol-5-yl)-1-phenylmethanimine]	0.41

Same assay, conditions: HPLC (LC-MS) method [b]: pH 2.7, 0.1% formic acid in water and acetonitrile, linear gradient 10% to 95% acetonitrile; EEC directive 79/831 Annex V.A8

Compound	log p
Cn1cccc1C(=NOCc1cccc(N)n1)c1ccc(Cl)nc1 [Example 464]	1.72^[b]
CCCCCC(=O)Nc1cccc(CON=C(c2ccsc2)c2cncn2C)n1 (single isomer, unassigned) [Example 426]	1.99^[b]
Cn1ncnc1C(=NOCc1cccc(NC(=O)CCc2ccccc2)n1)c1ncc(C(F)(F)F)cc1Cl [Example 471]	3.73^[b]
Cn1cncc1C(=NOCc1cccc(NC(=O)C(C)(C)C)n1)c1cccs1 [Example 443]	1.7^[b]
CCCCCCCCCC(=O)Nc1cccc(CON=C(c2cccs2)c2cncn2C)n1 [Example 448]	2.98^[b]
CCCCCOC(=O)Nc1nc(CON=C(c2ccsc2)c2cncn2C)cs1 (single isomer, unassigned) [Example 461]	2.22^[b]
CCCCCOC(=O)Nc1cccc(CON=C(c2ncc(C(F)(F)F)cc2Cl)c2ncnn2C)n1 [Example 469]	4.41^[b]

Same assay, conditions: LC-MS, method [b]: pH 2.7 with 0.1% formic acid in water and acetonitrile, linear gradient 10% to 95% acetonitrile

Compound	log p
Cn1cncc1C(=NOCc1cccc(NC(=O)C(C)(C)C)n1)c1ccccc1 (single isomer, unassigned) [Example 126]	1.85^[b]
Cn1ccnc1C(=NOCc1cccc(NC(=O)CCc2ccc(Cl)s2)n1)c1ccccc1 [Example 331]	2.49^[b]
Cn1ccnc1C(=NOCc1cccc(NC(=O)OCC(Cl)(Cl)Cl)n1)c1cccc(F)c1 [Example 347]	2.73^[b]
CC(C)C(=O)Nc1ccnc(CON=C(c2ccccc2)c2cnc(C(=O)C(C)C)n2C)n1 [Example 109]	3.62^[b]
C#CCCCC(=O)Nc1cccc(CON=C(c2ccccc2)c2ncnn2C)n1 [Example 309]	2.7^[b]
Cn1ccnc1C(=NOCc1cccc(NC(=O)C2CCCCO2)n1)c1ccccc1 (stereo not drawn) [Example 338]	1.93^[b]
Cn1ncnc1C(=NOCc1cccc(CNC(=O)CCc2ccccc2)n1)c1ccccc1 [Example 134]	2.56^[b]
CCCCSC(=O)Nc1cccc(CON=C(c2ccccc2)c2nccn2C)n1 [Example 334]	2.58^[b]
Cn1nncc1C(=NOCc1nccc(NC(=O)Cc2ccccc2)n1)c1ccccc1 [Example 81]	2.84^[b]
Cn1ccnc1C(=NOCc1cccc(NC(=O)CCC2CCCC2)n1)c1ccccc1 [Example 281]	3.19^[b]
CC(=O)Nc1ccnc(CON=C(c2ccccc2)c2nccn2C)n1 [Example 62]	1.13^[b]
CC(C)CC(=O)Nc1nc(CON=C(c2ccccc2)c2ncnn2C)cs1 [Example 96]	2.88^[b]
COc1ccc(C(=NOCc2cccc(NC(=O)C(C)C)n2)c2ncc(C(F)(F)F)cc2Cl)cc1Br [Example 367]	4.73^[b]
pentyl{2-[({[(1-methyl-1H-imidazol-2-yl)(phenyl)methylene]amino}oxy)-methyl]pyrimidin-4-yl}carbamate [Example 61]	1.92^[b]
Cc1ccccc1C(=NOCc1cccc(NC(=O)Cc2ccccc2)n1)c1ncnn1C [Example 30]	3.11^[b]
CCCCCCOC(=O)Nc1cccc(CON=C(c2ccccc2)c2ncnn2C)n1 [Example 88]	4.36^[b]
CCCCCOC(=O)Nc1ccnc(CON=C(c2cccs2)c2ncnn2C)n1 [Example 406]	3.31^[b]
CCCCS(=O)(=O)N(c1cccc(CON=C(c2ccccc2)c2cnnn2C)n1)S(=O)(=O)CCCC [Example 80]	4.26^[b]
COC(=O)CCCC(=O)Nc1cccc(CON=C(c2ccccc2)c2ncnn2C)n1 [Example 43]	2.39^[b]

Compound	log p
Cn1ccnc1C(=NOCc1cccc(NC(=O)Cc2cccs2)n1)c1cccc(F)c1 [Example 290]	2.44^[b]
Cn1nncc1C(=NOCc1cccc(NC(=O)C2CC2)n1)c1ccccc1 [Example 67]	2.55^[b]
CCCCCC(=O)Nc1nc(CON=C(c2ccccc2)c2cnnn2C)cs1 [Example 85]	3.44^[b]
CC(C)CC(=O)Nc1ccnc(CON=C(c2cccs2)c2ncnn2C)n1 [Example 410]	2.56^[b]
CC(C)COC(=O)Nc1cccc(CON=C(c2ccccc2)c2ncnn2C)n1 [Example 316]	3.52^[b]
CCCCCOC(=O)Nc1cccc(CON=C(c2ccccc2)c2cnnn2C)n1 [Example 69]	2.46^[b]
Cn1ncnc1C(=NOCc1cccc(NC(=O)CCc2ccccc2)n1)c1ccccc1 [Example 107]	3.33^[b]
CCCCCCCOC(=O)Nc1cccc(CON=C(c2ccccc2)c2ncnn2C)n1 [Example 106]	4.86^[b]
Cn1ncnc1C(=NOCc1nccc(NC(=O)CCc2ccccc2)n1)c1cccs1 [Example 409]	2.9^[b]
CC(C)CCOC(=O)Nc1cccc(CON=C(c2ccccc2)c2nccn2C)n1 [Example 326]	2.51^[b]
CC(C)C(=O)Nc1ccnc(CON=C(c2ccccc2)c2cncn2C)n1 [Example 124]	1.49^[b]
CCCCOC(=O)Nc1cccc(CON=C(c2ccccc2)c2ncnn2C)n1 [Example 91]	3.53^[b]
COCCOCC(=O)Nc1ccnc(CON=C(c2ccccc2)c2nccn2C)n1 [Example 56]	1.34^[b]
CCCCCCC(=O)Nc1ccnc(CON=C(c2ccccc2)c2nccn2C)n1 [Example 14]	2.39^[b]
CCCCS(=O)(=O)N(c1cccc(CON=C(c2ccccc2)c2ncnn2C)n1)S(=O)(=O)CCCC [Example 73]	2.73^[b]
Cn1ncnc1C(=NOCc1cccc(NC(=O)C(C)(C)C)n1)c1ccccc1 [Example 26]	2.98^[b]
CCCCS(=O)(=O)N(c1cccc(CON=C(c2cccc(C)c2)c2ncnn2C)n1)S(=O)(=O)CCCC [Example 79]	4.49^[b]
Cn1ncnc1C(=NOCc1cccc(NC(=O)Cc2ccccc2)n1)c1ccccc1 [Example 29]	3.06^[b]

Same assay, conditions: LC-MS, method [c]: pH 7.8 with 0.001 molar ammonium hydrogen carbonate solution in water, linear gradient 10% to 95% acetonitrile

Compound	log p
Cn1ccnc1C(=NOCc1nccc(N)n1)c1ccccc1 [Example 3]	1.42^[c]
Cn1ccnc1C(=NOCc1cccc(N)n1)c1cccs1 [Example 387]	1.74^[c]

Same assay, conditions: method [b]: LC-MS at pH 2.7, 0.1% formic acid in water / acetonitrile, linear gradient 10% to 95% acetonitrile

Compound	log p
CCCCCC(=O)NCc1cccc(CON=C(c2ccccc2)c2ncnn2C)n1 [Example 140]	2.62^[b]
Cn1c(C(=NOCc2cccc(NC(=O)Cc3ccccc3)n2)c2ccccc2)nnc1C(F)(F)F [Example 200]	3.6^[b]
Cn1ncnc1C(=NOCc1cccc(NC(=O)CCc2cccc(C(F)(F)F)c2)n1)c1ccccc1 [Example 239]	3.87^[b]
Cn1ccnc1C(=NOCc1cccc(NC(=O)Cc2cccs2)n1)c1ccccc1 [Example 264]	2.23^[b]
Cc1nc(C(=NOCc2cccc(N3C(=O)c4ccccc4C3=O)n2)c2ccccc2)cs1 (single isomer, unassigned) [Example 170]	3.55^[b]
Cn1c(C(=NOCc2cccc(N3C(=O)c4ccccc4C3=O)n2)c2ccccc2)nnc1C(F)(F)F [Example 192]	3.31^[b]
Cn1nc(C(F)(F)F)nc1C(=NOCc1cccc(NC(=O)C(C)(C)C)n1)c1ccccc1 [Example 178]	4.31^[b]
CCCCCOC(=O)Nc1cccc(CON=C(c2ccccc2)c2nc(C(F)(F)F)nn2C)n1 [Example 179]	5.2^[b]
Cc1cccc(C(=NOCc2cccc(N)n2)c2ncnn2C)c1 [Example 164]	1.08^[b]
CCCCCOC(=O)Nc1cccc(CON=C(c2ccccc2)c2nn(C)c(=O)n2C)n1 [Example 146]	3.8^[b]
CC(C)COC(=O)Nc1cccc(CON=C(c2ccccc2)c2nncn2C)n1 [Example 159]	2.88^[b]
Cn1ncnc1C(=NOCc1cccc(NC(=O)Cc2ccccc2Cl)n1)c1ccccc1 [Example 243]	3.31^[b]
Cn1nc(C(F)(F)F)nc1C(=NOCc1cccc(NC(=O)C2CCCC2)n1)c1ccccc1 [Example 184]	4.41^[b]
Cn1cnnc1C(=NOCc1cccc(NC(=O)C(C)(C)C)n1)c1ccccc1 [Example 167]	2.44^[b]
N-{2-[({[(1-methyl-1H-imidazol-2-yl)(phenyl)methylene]amino}-oxy)methyl]pyrimidin-4-yl}cyclopropanecarboxamide [Example 193]	1.54^[b]
COc1ccccc1CC(=O)Nc1cccc(CON=C(c2cccc(F)c2)c2nccn2C)n1 [Example 275]	2.66^[b]
Cn1ncnc1C(=NOCc1cccc(N2CCCCC2=O)n1)c1ccccc1 [Example 208]	2.18^[b]
CCCCCOC(=O)Nc1cccc(CON=C(c2ccccc2)c2csc(C)n2)n1 [Example 187]	4.51^[b]

Same assay, conditions: reversed phase HPLC column, pH 2.7

Compound	chromatographic logP
Cn1ncnc1C(=NOCc1cccc(N)n1)c1ccccc1 [Example 4, 6-[({[(1-methyl-1H-1,2,4-triazol-5-yl)(phenyl)methylene]amino}oxy)methyl]pyridin-2-amine]	1
